Source: US11028068B2, “Somatostatin modulators and uses thereof” (Crinetics Pharmaceuticals, Inc., priority 2017, dated 2021)

Target: T1, human somatostatin receptor subtype 2 (Homo sapiens, UniProt P30874)
T1 construct: expressed in transfected cells; host or cells: CHO (Chinese hamster ovary) cells, cultured under G-418 selection
Experiment: cAMP assay (inhibition of cAMP activities via sst2 receptor)
Format: cell-based
Details: CHO cells expressing the human somatostatin receptor subtype 2, forskolin
Description: General overview: All five SSTR subtypes are Gi coupled G-protein coupled receptors (GPCRs) that lead to decreases in intracellular cyclic AMP (cAMP) when activated by an agonist. Therefore, measurement of intracellular cAMP levels can be used to assess whether compounds of the invention are agonists of SSTR subtypes (John Kelly, Troy Stevens, W. Joseph Thompson, and Roland Seifert, Current Protocols in Pharmacology, 2005,2.2.1-2.2). One example of an intracellular cAMP assay is described below.
One day prior to the assay, 40,000 Chinese hamster ovary (CHO) cells expressing the human somatostatin receptor subtype 2 are plated in each well of a 96-well tissue culture plate in DM-MEM growth media (Gibco) with the following additives: 10% fetal bovine serum (Gibco), 100 U/mL penicillin (Gibco), 100 ug/mL streptomycin (Gibco), 10 mM HEPES (Gibco), 1.2 mM sodium hydroxide, 0.5 mg/mL G-418 (Gibco)). The cells are cultured overnight at 37° C., 5% CO2 and 95% humidity. On the day of the assay, the media is aspirated and the cells are washed with 1X Dulbecco's phosphate buffered saline (Gibco). Next, 5 μL of assay buffer (1× Earle's Balanced Salt Solution (Gibco), 5 mM MgCl2, 10 mM HEPES, 0.1% bovine serum albumin, 0.2 mM 3-Isobutyl-1-methylxanthine (IBMX, Biomol Research Labs)) and forskolin is added. Various dilutions of the compounds of the invention are prepared in assay buffer and 5 μL of the dilutions are added to the cultured cells and incubated for 15 minutes at 37° C. (the final concentration of the compounds of the invention are typically 0-10,000 nM). 10 μL of lysis buffer (HRTF cAMP kit, Cisbio) containing cAMP detection and visualization antibodies are added and the assay is allowed incubate for 1-24 hours at room temperature. The intracellular cAMP concentrations are then measured using a commercially available detection kit (for example, the cAMP HTRF kit, Cisbio). The measured intracellular cAMP concentrations are plotted vs. the concentration of the compounds of the invention and the EC50 of the compounds are calculated using standard methods.

T1 sequence (P30874 whole entry): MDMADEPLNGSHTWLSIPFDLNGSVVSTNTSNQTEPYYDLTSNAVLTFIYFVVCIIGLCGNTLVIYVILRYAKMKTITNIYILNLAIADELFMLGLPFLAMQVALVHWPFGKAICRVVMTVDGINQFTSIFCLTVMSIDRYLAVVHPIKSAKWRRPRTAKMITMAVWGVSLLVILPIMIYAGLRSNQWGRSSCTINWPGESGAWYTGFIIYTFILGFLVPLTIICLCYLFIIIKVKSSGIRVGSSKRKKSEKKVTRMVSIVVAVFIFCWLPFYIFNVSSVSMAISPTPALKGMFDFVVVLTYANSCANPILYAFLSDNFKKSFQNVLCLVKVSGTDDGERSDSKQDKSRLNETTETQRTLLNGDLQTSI

**Q.** How did the EC50 turn out when `Cc1cc(Cl)cc(-c2cnc3ccc(-c4cccc(O)c4)cc3c2C(=O)N(C)C[C@H]2CCCN2)c1` (single isomer, unassigned) [Compound 1-5] was run?
**A.** 39 nM

**Q.** How did the EC50 turn out when `Cc1cc(Cl)cc(-c2cnc3ccc(-c4cccc(O)c4)cc3c2C(=O)N(C)C[C@@H]2CCCN2)c1` [Compound 1-1, 3-(3-chloro-5-methylphenyl)-6-(3-hydroxyphenyl)-N-methyl-N-[(2S) -pyrrolidin-2-ylmethyl]quinoline-4-carboxamide] was run?
**A.** 0.12 nM

**Q.** `CC[C@H](N)CN(C)C(=O)c1c(-c2cc(C)cc(Cl)c2)cnc2ccc(-c3cc(O)cc(C(N)=O)c3)cc12` [Compound 1-8, N-[(25)-2-aminobutyl]-6-(3-carbamoyl-5-hydroxyphenyl)-3-(3-chloro-5-methylphenyl)-N-methylquinoline-4-carboxamide] was tested. Which EC50 did it give?
**A.** 100 to 1000 nM

**Q.** For `CN(C)C(=O)c1cccc(-c2cnc3ccc(-c4cccc(O)c4)cc3c2C(=O)N(C)C[C@@H]2CCCN2)c1` [Compound 1-73, 3-[3-(dimethylcarbamoyl)phenyl]-6-(3-hydroxyphenyl)-N-methyl-N-[(2S)-pyrrolidin-2-ylmethyl]quinoline-4-carboxamide], which EC50 is on record?
**A.** 100 to 1000 nM

**Q.** How did the EC50 turn out when `Cc1cc(Cl)cc(-c2cnc3ccc(-c4cccc(O)c4)nc3c2C(=O)N(C)C[C@@H]2CCCN2)c1` [Compound 2-1, 3-(3-chloro-5-methylphenyl)-6-(3-hydroxyphenyl)-N-methyl-N-[(2S) -pyrrolidin-2-ylmethyl]-1,5-naphthyridine-4-carboxamide] was run?
**A.** < 100 nM

**Q.** Which EC50 does the source give for `CN(C[C@@H]1CCCN1)C(=O)c1c(-c2cccc(O)c2)cnc2ccc(-c3cccc(O)c3)nc12` [Compound 2-2, 3,6-bis(3-hydroxyphenyl)-N-methyl-N-[(2S)-pyrrolidin-2-ylmethyl]-1,5-naphthyridine-4-carboxamide] here?
**A.** 100 to 1000 nM

**Q.** How did the EC50 turn out when `Cc1cc(Cl)cc(-c2cnc3ccc(-c4cc(O)ccc4F)nc3c2C(=O)N(C)C[C@@H]2CCCN2)c1` [Compound 2-3, 3-(3-chloro-5-methylphenyl)-6-(2-fluoro-5-hydroxyphenyl)-N-methyl-N-[(2S)-pyrrolidin-2-ylmethyl]-1,5-naphthyridine-4-carboxamide] was run?
**A.** < 100 nM

**Q.** For `Cc1cc(Cl)cc(-c2cnc3ccc(-c4cc(O)cc(C#N)c4)nc3c2C(=O)N(C)C[C@@H]2CCCN2)c1` [Compound 2-4, 3-(3-chloro-5-methylphenyl)-6-(3-cyano-5-hydroxyphenyl)-N-methyl-N-[(2S)-pyrrolidin-2-ylmethyl]-1,5-naphthyridine-4-carboxamide], which EC50 is on record?
**A.** 100 to 1000 nM

**Q.** Which EC50 does the source give for `CC[C@H](N)CN(C)C(=O)c1c(-c2cc(C)cc(C)c2)cnc2ccc(-c3cc(O)cc(C#N)c3)nc12` [Compound 2-5, N-[(2S)-2-aminobutyl]-6-(3-cyano-5-hydroxyphenyl)-3-(3,5-dimethylphenyl)-N-methyl-1,5-naphthyridine-4-carboxamide] here?
**A.** < 100 nM

**Q.** For `CC[C@H](N)CN(C)C(=O)c1c(-c2cc(C)cc(Cl)c2)cnc2ccc(-c3cc(O)cc(C#N)c3)nc12` [Compound 2-6, N-[(2S)-2-aminobutyl]-3-(3-chloro-5-methylphenyl)-6-(3-cyano-5-hydroxyphenyl)-N -methyl-1,5-naphthyridine-4-carboxamide], which EC50 is on record?
**A.** < 100 nM

**Q.** `CC[C@H](N)CN(C)C(=O)c1c(-c2cc(C)cc(F)c2)cnc2ccc(-c3cc(O)cc(C#N)c3)nc12` [Compound 2-7, N-[(2S)-2-aminobutyl]-6-(3-cyano-5-hydroxyphenyl)-3-(3-fluoro-5-methylphenyl)-N -methyl-1,5-naphthyridine-4-carboxamide] was tested. Which EC50 did it give?
**A.** < 100 nM

**Q.** `CN(C[C@@H]1CCCN1)C(=O)c1c(-c2cccc(-n3cccn3)c2)cnc2ccc(-c3cccc(O)c3)nc12` [Compound 2-8, 6-(3-hydroxyphenyl)-N-methyl-3-[3-(1H-pyrazol-1-yl)phenyl]-N-[(2S)-pyrrolidin-2-ylmethyl]-1,5-naphthyridine-4-carboxamide] was tested. Which EC50 did it give?
**A.** 100 to 1000 nM

**Q.** `CN(C[C@@H]1CCCN1)C(=O)c1c(-c2cccc(C#N)c2)cnc2ccc(-c3cc(F)cc(C#N)c3)nc12` [Compound 2-15, 6-(3-cyano-5-fluorophenyl)-3-(3-cyanophenyl)-N-methyl-N-[(2S)-pyrrolidin-2-ylmethyl]-1,5-naphthyridine-4-carboxamide] was tested. Which EC50 did it give?
**A.** 100 to 1000 nM

**Q.** Which EC50 does the source give for `CN(CC1CCCN1)C(=O)c1c(-c2cccc(CC(=O)O)c2)cnc2ccc(-c3cccc(O)c3)nc12` (stereo not drawn) [Compound 2-20, 2-{3-[6-(3-hydroxyphenyl)-4-[methyl(pyrrolidin-2-ylmethyl)carbamoyl]-1,5-naphthyridin-3-yl]phenyl}acetic acid] here?
**A.** 100 to 1000 nM

**Q.** With `COC(=O)Cc1cccc(-c2cnc3ccc(-c4cccc(O)c4)nc3c2C(=O)N(C)C[C@@H]2CCCN2)c1` [Compound 2-21, methyl 2-{3-[6-(3-hydroxyphenyl)-4-{methyl[(2S)-pyrrolidin-2-ylmethyl]carbamoyl}-1,5-naphthyridin-3-yl]phenyl}acetate] as the compound, how does the EC50 read?
**A.** 100 to 1000 nM

**Q.** For `CN(C[C@@H]1CCCN1)C(=O)c1c(-c2cccc(CCC(=O)O)c2)cnc2ccc(-c3cccc(O)c3)nc12` [Compound 2-22, 3-{3-[6-(3-hydroxyphenyl)-4-{methyl[(2S)-pyrrolidin-2-ylmethyl]carbamoyl}-1,5-naphthyridin-3-yl]phenyl}propanoic acid], which EC50 is on record?
**A.** 100 to 1000 nM

**Q.** For `CN(C[C@@H]1CCCN1)C(=O)c1ccnc2ccc(-c3cccc(O)c3)nc12` [Compound 3-1, 6-(3-hydroxyphenyl)-N-methyl-N-[(2S)-pyrrolidin-2-ylmethyl]-1,5-naphthyridine-4-carboxamide], which EC50 is on record?
**A.** < 100 nM

**Q.** With `Cc1cc(F)cc(-c2cnc3ccc(N4CCCC4)nc3c2C(=O)N(C)C[C@@H]2CCCN2)c1` [Compound 3-2, 3-(3-fluoro-5-methylphenyl)-N-methyl-6-(pyrrolidin-1-yl)-N-[(2S)-pyrrolidin-2-ylmethyl]-1,5-naphthyridine-4-carboxamide] as the compound, how does the EC50 read?
**A.** 100 to 1000 nM

**Q.** How did the EC50 turn out when `Cc1cc(F)cc(-c2cnc3ccc(N4CCCC(O)C4)nc3c2C(=O)N(C)C[C@@H]2CCCN2)c1` (stereo partly drawn) [Compound 3-3] was run?
**A.** 100 to 1000 nM

**Q.** With `CN(C[C@@H]1CCCN1)C(=O)c1c(N2CCCC2)cnc2ccc(-c3cccc(O)c3)nc12` [Compound 3-4, 6-(3-hydroxyphenyl)-N-methyl-3-(pyrrolidin-1-yl)-N-[(2S)-pyrrolidin-2-ylmethyl]-1,5-naphthyridine-4-carboxamide] as the compound, how does the EC50 read?
**A.** < 100 nM

**Q.** `Cc1cccc(-c2cnc3ccc(-c4cccc(O)c4)nc3c2C(=O)N(C)C[C@@H]2CCCN2)n1` [Compound 3-5, 6-(3-hydroxyphenyl)-N-methyl-3-(6-methylpyridin-2-yl)-N-[(2S)-pyrrolidin-2-ylmethyl]-1,5-naphthyridine-4-carboxamide] was tested. Which EC50 did it give?
**A.** 100 to 1000 nM

**Q.** With `CC1CN(c2cnc3ccc(-c4cccc(O)c4)nc3c2C(=O)N(C)C[C@@H]2CCCN2)CC(C)O1` (stereo partly drawn) [Compound 3-6, 3-(2,6-dimethylmorpholin-4-yl)-6-(3-hydroxyphenyl)-N-methyl-N-[(2S)-pyrrolidin-2-ylmethyl]-1,5-naphthyridine-4-carboxamide] as the compound, how does the EC50 read?
**A.** < 100 nM

**Q.** How did the EC50 turn out when `CC#Cc1cnc2ccc(-c3cc(F)cc(C#N)c3)nc2c1C(=O)N(C)C[C@@H]1CCCN1` [Compound 3-7, 6-(3-cyano-5-fluorophenyl)-N-methyl-3-(prop-1-yn-1-yl)-N-[(2S)-pyrrolidin-2-ylmethyl]-1,5-naphthyridine-4-carboxamide] was run?
**A.** 100 to 1000 nM

**Q.** With `Cc1cc(F)cc(-c2cnc3ccc(-c4cncc(C#N)c4)cc3c2C(=O)N(C)C[C@@H]2CCCN2)c1` [Compound 3-8, 6-(5-cyanopyridin-3-yl)-3-(3-fluoro-5-methylphenyl)-N-methyl-N-[(2S)-pyrrolidin-2-ylmethyl]quinoline-4-carboxamide] as the compound, how does the EC50 read?
**A.** < 100 nM
